Broadly, the EC50 is the concentration giving half of the maximal effect.

Calls of active or inactive are those of the source. The rule behind the calls is not given here.

Among the data in ChEMBL document CHEMBL4819089, “Magnolol, a natural aldehyde dehydrogenase-2 agonist, inhibits the proliferation and collagen synthesis of cardiac fibroblasts” (Bioorg Med Chem Lett, 2021) are Activity and EC50 values, retold here.

Test [1] concerns Cardiac fibroblast. The experiment in a line: Anti-myocardial fibrosis activity against cardiac fibroblasts (unknown origin) assessed as reduction in collagen synthesis by measuring reduction in type1 collagen protein expression at 30 uM measured after 24 hrs by western blot analysis. It is filed as functional. For orientation: A western blot detects proteins with antibodies after separation by electrophoresis.

For test [2], the system named is Cardiac fibroblast. The test can be described thus: Anti-myocardial fibrosis activity against cardiac fibroblasts (unknown origin) assessed as inhibition of cell viability at 30 uM measured after 24 hrs by MTT assay. In kind it is functional, tissue-based. For orientation: Tetrazolium dyes change colour on reduction, which living cells bring about.
Test [3] has as its system Cardiac fibroblast. The test can be described thus: Anti-myocardial fibrosis activity against cardiac fibroblasts (unknown origin) assessed as reduction in collagen synthesis by measuring reduction in type3 collagen protein expression at 30 uM measured after 24 hrs by western blot analysis. It is filed as functional.
The test system of test [4] is Cardiac fibroblast. The test can be described thus: Anti-myocardial fibrosis activity against cardiac fibroblasts (unknown origin) assessed as reduction in CDK4 protein expression at 30 uM measured after 24 hrs by western blot analysis. It is filed as functional, tissue-based.
For test [5], the system named is Cardiac fibroblast. The test can be described thus: Anti-myocardial fibrosis activity against cardiac fibroblasts (unknown origin) assessed as reduction in cyclinD1 protein expression at 30 uM measured after 24 hrs by western blot analysis. It is filed as functional, tissue-based.
Test [6] has as its system Cardiac fibroblast. The test can be described thus: Anti-myocardial fibrosis activity against cardiac fibroblasts (unknown origin) assessed as inhibition of cell proliferation at 30 uM measured after 24 hrs by EdU incorporation based assay. It is filed as functional, tissue-based.
Test [7] deals with T1, Aldehyde dehydrogenase, mitochondrial (Homo sapiens) (UniProt P05091).
T1 sequence (whole entry): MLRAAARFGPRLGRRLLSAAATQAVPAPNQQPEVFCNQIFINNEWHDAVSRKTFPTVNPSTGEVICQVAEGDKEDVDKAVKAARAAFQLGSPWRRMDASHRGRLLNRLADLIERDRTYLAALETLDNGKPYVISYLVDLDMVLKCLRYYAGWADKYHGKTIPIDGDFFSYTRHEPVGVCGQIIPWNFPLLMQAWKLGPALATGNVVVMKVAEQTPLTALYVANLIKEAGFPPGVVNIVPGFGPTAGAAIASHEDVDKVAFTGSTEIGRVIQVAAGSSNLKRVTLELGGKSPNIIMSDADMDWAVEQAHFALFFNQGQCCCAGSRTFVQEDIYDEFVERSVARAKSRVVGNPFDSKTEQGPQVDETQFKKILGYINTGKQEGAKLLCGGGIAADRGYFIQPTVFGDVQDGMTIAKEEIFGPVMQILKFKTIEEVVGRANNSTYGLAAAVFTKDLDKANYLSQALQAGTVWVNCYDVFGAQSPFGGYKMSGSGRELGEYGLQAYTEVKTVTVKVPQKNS
The experiment in a line: (§1) Agonist activity at human recombinant ALDH2 measured after 1 hr. Particulars: filed as agonist.

Test [8] concerns the target T2, Aldehyde dehydrogenase, mitochondrial (Homo sapiens, UniProt P05091).
T2 sequence (P05091 whole entry): T1 sequence (whole entry)
The test is described as §1.

Test [9] concerns Cardiac fibroblast. The experiment in a line: Anti-myocardial fibrosis activity against cardiac fibroblasts (unknown origin) assessed as reduction in collagen synthesis by measuring reduction in type3 collagen protein expression measured after 24 hrs by western blot analysis. In kind it is functional. Particulars: dose 5-20 µM.
For test [10], the system named is Cardiac fibroblast. The test can be described thus: Anti-myocardial fibrosis activity against cardiac fibroblasts (unknown origin) assessed as reduction in cyclinD1 protein expression measured after 24 hrs in presence of ALDH2 inhibitor, daidzin by western blot analysis. In kind it is functional, tissue-based.
The target in test [11] is T1, Aldehyde dehydrogenase, mitochondrial (Homo sapiens). The experiment in a line: Agonist activity at ALDH2 in cardiac fibroblasts (unknown origin) measured after 24 hrs by ELISA. It is filed as tissue-based. Particulars: Cardiac fibroblast, filed as agonist, dose 5-20 µM. In general terms: ELISA stands for enzyme-linked immunosorbent assay.
The test system of test [12] is Cardiac fibroblast. The test can be described thus: Anti-myocardial fibrosis activity against cardiac fibroblasts (unknown origin) assessed as inhibition of cell proliferation measured after 24 hrs in presence of ALDH2 inhibitor, daidzin by EdU incorporation based analysis. In kind it is functional, tissue-based.
The test system of test [13] is Cardiac fibroblast. The experiment in a line: Anti-myocardial fibrosis activity against cardiac fibroblasts (unknown origin) assessed as reduction in cyclinD1 protein expression measured after 24 hrs by western blot analysis. Particulars: dose 5-20 µM. In kind it is functional, tissue-based.
Test [14] relates to Cardiac fibroblast. The test can be described thus: Effect on Bax protein expression in cardiac fibroblasts (unknown origin) measured after 24 hrs in presence of ALDH2 inhibitor, daidzin by western blot analysis. In kind it is functional, tissue-based.
Test [15] has as its system Cardiac fibroblast. The test can be described thus: Effect on Bcl2 protein expression in cardiac fibroblasts (unknown origin) at 5 to 20 uM incubated for 24 hrs by western blot analysis. Particulars: dose 5-20 µM. In kind it is functional, tissue-based.
In test [16] the test system is Cardiac fibroblast. The experiment in a line: Anti-myocardial fibrosis activity against cardiac fibroblasts (unknown origin) assessed as reduction in collagen synthesis by measuring reduction in type3 collagen protein expression measured after 24 hrs in presence of ALDH2 inhibitor, daidzin by western blot analysis. In kind it is functional, tissue-based.
The subject of test [17] is Cardiac fibroblast. The test can be described thus: Anti-myocardial fibrosis activity against cardiac fibroblasts (unknown origin) assessed as reduction in CDK4 protein expression measured after 24 hrs in presence of ALDH2 inhibitor, daidzin by western blot analysis. It is filed as functional, tissue-based.
In test [18] the test system is Cardiac fibroblast. The test can be described thus: Anti-myocardial fibrosis activity against cardiac fibroblasts (unknown origin) assessed as inhibition of cell viability at 20 uM measured for 120 hrs by MTT assay. In kind it is functional, tissue-based.
Test [19] has as its system Cardiac fibroblast. The experiment in a line: Anti-myocardial fibrosis activity against cardiac fibroblasts (unknown origin) assessed as inhibition of cell viability measured after 24 hrs in presence of ALDH2 inhibitor, daidzin by MTT assay. In kind it is functional, tissue-based.
The test system of test [20] is Cardiac fibroblast. The test can be described thus: Effect on Bcl2 protein expression in cardiac fibroblasts (unknown origin) measured after 24 hrs in presence of ALDH2 inhibitor, daidzin by western blot analysis. It is filed as functional, tissue-based.
Test [21] has as its system Cardiac fibroblast. The test can be described thus: Anti-myocardial fibrosis activity against cardiac fibroblasts (unknown origin) assessed as inhibition of cell viability measured after 24 hrs by MTT assay. It is filed as functional, tissue-based. Particulars: dose 5-20 µM.
Test [22] concerns Cardiac fibroblast. The experiment in a line: Anti-myocardial fibrosis activity against cardiac fibroblasts (unknown origin) assessed as reduction in collagen synthesis by measuring reduction in type1 collagen protein expression measured after 24 hrs by western blot analysis. In kind it is functional, tissue-based. Particulars: dose 5-20 µM.
Test [23] relates to Cardiac fibroblast. The test can be described thus: Anti-myocardial fibrosis activity against cardiac fibroblasts (unknown origin) assessed as inhibition of cell proliferation measured after 24 hrs by EdU incorporation based assay. In kind it is functional, tissue-based. Particulars: dose 5-20 µM.
Test [24] concerns Cardiac fibroblast. The test can be described thus: Anti-myocardial fibrosis activity against cardiac fibroblasts (unknown origin) assessed as reduction in collagen synthesis by measuring reduction in type1 collagen protein expression measured after 24 hrs in presence of ALDH2 inhibitor, daidzin by western blot analysis. It is filed as functional, tissue-based.
In test [25] the test system is Cardiac fibroblast. The test can be described thus: Anti-myocardial fibrosis activity against cardiac fibroblasts (unknown origin) assessed as reduction in CDK4 protein expression measured after 24 hrs by western blot analysis. Particulars: dose 5-20 µM. It is filed as functional, tissue-based.
Test [26] has as its target T1, Aldehyde dehydrogenase, mitochondrial (Homo sapiens). The experiment in a line: Binding affinity to ALDH2 (unknown origin) by surface plasmon resonance analysis. Particulars: filed as agonist.
For test [27], the system named is Cardiac fibroblast. The experiment in a line: Effect on Bax protein expression in cardiac fibroblasts (unknown origin) at 5 to 20 uM incubated for 24 hrs by western blot analysis. In kind it is functional, tissue-based. Particulars: dose 5-20 µM.
In test [28] the test system is Cardiac fibroblast. The test can be described thus: Effect on ALDH2 expression in cardiac fibroblasts (unknown origin) at 5 to 20 uM measured after 24 hrs by western blot analysis. In kind it is functional, tissue-based. Particulars: dose 5-20 µM.

Turning to `O=C(NCc1ccc2c(c1)OCO2)c1c(Cl)cccc1Cl`, the result in the test on Cardiac fibroblast [1], in the test with Cardiac fibroblast [2], in the test on Cardiac fibroblast [3], in the test with Cardiac fibroblast [4], in the test on Cardiac fibroblast [5] and in the test on Cardiac fibroblast [6] was Active.
In the case of `C=CCc1ccc(O)c(-c2cc(CC=C)ccc2O)c1` [MAGNOLOL], the Activity result (in test [7]; with Cardiac fibroblast [9]; in test [11]; in the test with Cardiac fibroblast [13]; in the test with Cardiac fibroblast [21]; in the test with Cardiac fibroblast [22]) was “Dose-Dependent Effect” in each case. The Activity result was “Dose-Dependent Effect” in the test on Cardiac fibroblast [23], “Dose-Dependent Effect” in the test on Cardiac fibroblast [25] and 7.07 10^-6M in test [26]. Moreover, the concentration for a half-maximal effect (EC50) in test [8] came out at 57.9 µM. The result in the test with Cardiac fibroblast [10], in the test on Cardiac fibroblast [12], in the test on Cardiac fibroblast [14], with Cardiac fibroblast [15], in the test with Cardiac fibroblast [16] and in the test with Cardiac fibroblast [17] was inactive. Besides, the result in the test on Cardiac fibroblast [19], with Cardiac fibroblast [20], in the test on Cardiac fibroblast [24], in the test with Cardiac fibroblast [27] and in the test on Cardiac fibroblast [28] was inactive. In addition, the outcome in the test with Cardiac fibroblast [18] was Active.
